# Patent US20080261986A1, “PHARMACEUTICAL FORMULATIONS FOR IONTOPHORETIC DELIVERY OF AN ANTI-FUNGAL DRUG” (priority 2007, published 2008)
# Counter-ions that a name gives are not always drawn.
# How the values were obtained:
# [1] = Saturated solubility of terbinafine HCl in various solvents; format: physicochemical; conditions: thermodynamic from solid, n = 3
# Description: In order to establish a suitable receiver fluid for use in permeation studies, the saturated solubility of terbinafine HCl at room temperature was determined in various solvents such as, water, phosphate buffered saline (PBS), PBS with 5% Tween-80 (PBS-T), citrate buffer and sodium phosphate buffer. The drug was added to each of the solvents until visual saturation was obtained and the mixtures were left at controlled temperature (19° C.) for 24 hours. The saturated drug solution was filtered and solubility of the drug was determined by UV spectrophotometer.
# [2] = Permeation through hoof membrane in Franz diffusion cell, passive versus iontophoretic; format: in vitro ADME, bovine
# Description: The permeation experiments were conducted to optimize the parameters for iontophoretically-assisted terbinafine HCl into the hoof membrane. In these experiments bovine hoof membranes (˜0.250 mm thickness) were used as a model for human nail plates. The prehydrated (in water for 60 min) hoof membrane was sandwiched between the donor and receptor compartments of Franz diffusion cell (FDC). The receptor compartment was filled with receiver fluid (5 ml of PBS-5% Tween 80 (T80), water or water-T80 as indicated) and the set up was visually examined for any leaks by inverting the FDC. Two ml of drug solutions (5-10 mg/ml) or suspensions (5-10 mg/ml) were placed in the donor compartment of the Franz diffusion cell. […] Aliquots (50 μl) of the receptor phase were taken every 15 minutes for the first two hours and every hour subsequently for 8 h. A last aliquot was taken at 24 h. Some experiments were conducted for longer in which case aliquots were taken daily. […] Control passive experiments were conducted in the same way except for the application of electric current. Data were expressed as means ±standard deviations. All experiments were performed in triplicate. Drug permeation was measured as described above for up to 24 hours (n=3). For iontophoretic permeation, current density of 1 mA cm^2 was applied for 1 hr using carbon electrodes. […]
# [3] = Approximate visual solubility in receiver fluids; format: physicochemical; conditions: aqueous with cosolvent or surfactant or cyclodextrin, Approximate visual solubility
# Description: The visual solubility of each receiver fluid shown in Table 3 below was initially tested for ketoconazole (BUFA B.V.) and ciclopirox (PCAS Finland Oy). Additional solubility testing was then conducted for terbinafine hydrochloride (QueMaCo Ltd.), amorolfine hydrochloride (Inter-Chemical Ltd.) and itraconazole EP (Shamrock, UK) and the results are shown in Table 3.
# The solubility of terbinafine hydrochloride, fluconazole, itraconazole and amorolfine hydrochloride was determined in PBS and 5% Tween 80 and the results are summarized in Table 4.
# [4] = Delivery from nail-only and nail and skin applicators, nail on agarose model; format: in vitro ADME; conditions: for nail loading range: Coulombic dose range 2-60 mA*min
# Description: In the nail and skin applicator, the drug was delivered to both the nail and the skin (not shown). In the nail and skin applicator, the polyurethane foam and the active electrode (Ag-C) extended past the toe nail and onto agarose to mimic skin delivery. The agarose was covered with fluorinated ethylene propylene (FEP) membrane with uniform 0.5 mm holes distributed 5 mm apart to mimic the semi-restrictive property of the skin. […] The applicator extensions were adhered down to the base of the glass plate where the agarose was placed. The saline presoaked (1 hr) toe nail was placed on the curved agarose gel (1% w/v) with a counter electrode on the bottom of the agarose (standard EKG AgCl electrode with hydrogel, […]). […] Passive delivery was also run for 1 hr without current. […] The amount of drug permeated through the nail and into the agarose was determined by extracting terbinafine using 0.1M HCl and analyzing the samples by HPLC. Additional terbinafine HCl delivery testing using both types of applicators at different Coulombic doses were performed on the nail on agarose model. […] These additional doses, along with the higher 60 mA*min dose, were plotted as terbinafine loading (mg/g) with respect to Coulombic dose (FIG. 9F).
# [5] = format: in vitro ADME; conditions: 4 %, pH 3
# Description: Nails soaked in normal saline for one hour were mounted on a nail adapter and sandwiched between the two chambers of the FDC. […] Anodal iontophoresis was carried out at 0.5 mA/cm^2 for 1 hr using a custom made constant DC power supply. For comparison, passive delivery of the same formulation was performed for 1 hr. For drug release studies, nails loaded with drug were washed to remove the surface drug and were mounted on FDCs. The receiver compartment was filled with pH 3 water. The donor chamber was empty but was covered with parafilm. The receiver compartment medium was sampled daily and the amount of drug released from the drug loaded nails was measured until the cumulative release attained a plateau. Drug delivered into the nail via iontophoresis released terbinafine HCl in a sustained release fashion over approximately 3 weeks at levels far greater than passively loaded nails which reached a plateau only after a few days (FIG. 11). The amount of drug released from iontophoretically loaded nails represented approximately 47% of the initial drug loaded. Undelivered drug was confined to the upper layers of the nail and was hypothesized to be either entrapped or keratin bound. […] Actual release may be slower in vivo since the nail is not in contact with a fluid reservoir with enhanced drug solubility and infinite sink conditions.
# T. rubrum = conditions: quoted in the T. rubrum agar study, organism not given; cited from earlier work
compound,measurement,setting,value
"CN(C/C=C/C#CC(C)(C)C)Cc1cccc2ccccc12 [terbinafine HCl, (E)-N-(6,6-dimethyl-2-hepten-4-ynyl)-N-methyl-1-naphthylmethamine hydrochloride]",solubility at 24 h,"[1]; aqueous buffer, Citrate buffer, pH 5, 19° C.",1810 µg/mL
same,solubility at 24 h,"[1]; aqueous buffer, PBS, pH 7.4, 19° C.",1320 µg/mL
same,solubility at 24 h,"[1]; aqueous with cosolvent or surfactant or cyclodextrin, PBS-T (PBS with 5% Tween-80), pH 6.8, 19° C.",6020 µg/mL
same,solubility at 24 h,"[1]; Distilled water, pH 5.8, 19° C.",6370 µg/mL
same,time at which iontophoretic drug permeation leveled off,"[2]; bovine, 10 mg/ml",about 8 hrs
same,drug concentration in the receptor phase,"[2]; passive delivery, at 24 h, water-T80 and 10 mg/ml drug solution, average of replicates",20 ng/mL
same,solubility,[3],> 5000 µg/mL
same,share of the permeated drug that passed through the nail,"[4]; 1 h, 4 %",8%
same,share of the total permeated drug which passed through areas surrounding the nail,"[4]; 1 h, 4 %",Approximately 92%
same,nail loading range,[4]; nail and skin applicator,20 to 90 µg/g
same,nail loading range,[4]; nail only applicator,124 to 588 µg/g
same,amount of drug released as share of the initial drug loaded,[5],approximately 47%
same,duration of sustained release from iontophoretically loaded nails,[5],approximately 3 weeks
same,MIC,T. rubrum,4 ng/mL
